The record followed here is ChEMBL document CHEMBL6083236, “Identification of novel diarylpyrimidine derivatives as potent HIV-1 non-nucleoside reverse transcriptase inhibitors against wild-type and K103N mutant viruses” (Eur J Med Chem, 2024).

Series [1] concerns Human immunodeficiency virus 1. Description: Antiviral activity against HIV1 harboring F227L/V106A mutant infected in human MT4 cells assessed as reduction in virus induced cytopathic effect incubated for 5 days by Spectrophotometric based MTT assay. The format is functional, organism-based. As to conditions: Human immunodeficiency virus 1, MT4, 120 h.
For series [2], the system named is Human immunodeficiency virus 1. Nature of the series: Antiviral activity against HIV1 harboring Y188L mutant infected in human MT4 cells assessed as reduction in virus induced cytopathic effect incubated for 5 days by Spectrophotometric based MTT assay. The format is functional, organism-based. As to conditions: Human immunodeficiency virus 1, MT4, 120 h.
For series [3], the system named is Human immunodeficiency virus 1. Nature of the series: Antiviral activity against HIV1 harboring E138K mutant infected in human MT4 cells assessed as reduction in virus induced cytopathic effect incubated for 5 days by Spectrophotometric based MTT assay. The format is functional, organism-based. The conditions noted are these: Human immunodeficiency virus 1, MT4, 120 h.

Series [4] has as its system Human immunodeficiency virus 1. Nature of the series: Antiviral activity against HIV1 harboring K103 N mutant infected in human MT4 cells assessed as reduction in virus induced cytopathic effect incubated for 5 days by Spectrophotometric based MTT assay. The class given is functional, organism-based. As to conditions: Human immunodeficiency virus 1, MT4, 120 h.
For series [5], the system named is Human immunodeficiency virus 1. Nature of the series: Antiviral activity against HIV1 harboring RES056 mutant infected in human MT4 cells assessed as reduction in virus induced cytopathic effect incubated for 5 days by Spectrophotometric based MTT assay. The format is functional, organism-based. The conditions noted are these: Human immunodeficiency virus 1, RES056, MT4, 120 h.

Series [6] concerns Human immunodeficiency virus 1. Description: Antiviral activity against wild type HIV1 IIIB infected in human MT4 cells assessed as reduction in virus induced cytopathic effect incubated for 5 days by Spectrophotometric based MTT assay. The format is functional, organism-based. As to conditions: Human immunodeficiency virus 1, IIIB, MT4, 120 h.
The subject of series [7] is Human immunodeficiency virus 1. Description: Antiviral activity against HIV1 harboring L100I mutant infected in human MT4 cells assessed as reduction in virus induced cytopathic effect incubated for 5 days by Spectrophotometric based MTT assay. The class given is functional, organism-based. The conditions noted are these: Human immunodeficiency virus 1, MT4, 120 h.
The test system of the next series is MT4. Nature of the series: Cytotoxicity against human MT4 cells assessed as reduction in cell viability incubated for 5 days by Spectrophotometric based MTT assay. The format is functional. As to conditions: MT4, 120 h, time 5 day.
The nature of series [8]: Selectivity index, ratio of CC50 for cytotoxicity against human MT4 cells to EC50 for antiviral activity against HIV1 RES056 mutant infected in human MT4 cells. The conditions noted are these: MT4 cells.
Series [9] concerns Human immunodeficiency virus 1. Nature of the series: Antiviral activity against HIV1 harboring Y181C mutant infected in human MT4 cells assessed as reduction in virus induced cytopathic effect incubated for 5 days by Spectrophotometric based MTT assay. The format is functional, organism-based. The conditions noted are these: Human immunodeficiency virus 1, MT4, 120 h.
A short description of series [10]: Selectivity index, ratio of CC50 for cytotoxicity against human MT4 cells to EC50 for antiviral activity against wild type HIV1 IIIB infected in human MT4 cells. The conditions noted are these: MT4 cells.
Series [11] concerns the target Human immunodeficiency virus type 1 reverse transcriptase (Human immunodeficiency virus 1, UniProt Q72547). Description: Inhibition of wild type HIV1 reverse transcriptase assessed as inhibition of biotin deoxyuridine triphosphate incorporation into cDNA using DIG-labelled dNTP preincubated with compound for 1 hr followed by substrate addition in presence of biotin-labeled dNTPs by ELISA analysis.

Structures are written as SMILES. A value given as a limit tells only on which side of the number the result lay.

`Cc1cc(/C=C/C#N)cc(C)c1Oc1ccnc(Nc2ccc(N3CCSCC3)c(C#N)c2)n1`: the EC50 amounted to 66 nM in [1]; 3000 nM in [2]; 49 nM in [3]; 6 nM in [4]; 450 nM in series [5]; 9 nM in [6]. The EC50 came out at 21 nM in [7] and 40 nM in [9]. For the same compound, the CC50 in the series on MT4 was above 267000 nM. Also, the selectivity ratio in series [8] was above 596; in series [10], above 30300.
`CC(=O)N1CCN(c2ccc(Nc3nccc(Oc4c(C)cc(/C=C/C#N)cc4C)n3)cc2C#N)CC1`: the EC50 in series [1] is 44 nM; in series [2], above 6640 nM; in [3], 30 nM; in series [4] it was 3 nM; in series [5], 550 nM; in [6], 5 nM. Besides, the results for the concentration giving a half-maximal response (EC50) in series [7] and in [9] were 62 nM and 65 nM, respectively. Also, the CC50 in the series with MT4 came to 6640 nM. In addition, the results for the selectivity ratio in series [8] and in [10] were 12 and 1280, respectively.
In the case of `Cc1cc(/C=C/C#N)cc(C)c1Oc1ccnc(Nc2ccc(N3CC[S+]([O-])CC3)c(C#N)c2)n1`, the EC50 is 190 nM in series [1]; above 97800 nM in series [2]; 26 nM in [3]; 4 nM in series [4]; 2190 nM in series [5]; 5 nM in [6]. Further, the results for the EC50 in [7] and in [9] were 22 nM and 46 nM, respectively. Moreover, the CC50 with MT4 was 97800 nM. Also, the selectivity ratio in series [8] turned out to be 45; in series [10], 19300.
Take `Cc1cc(/C=C/C#N)cc(C)c1Oc1ccnc(Nc2ccc(N3CCN(S(C)(=O)=O)C3=O)c(C#N)c2)n1`: the EC50 in series [1] was 110 nM; in series [2] it was 1770 nM; in series [3] it was 38 nM; in [4], 2 nM; in series [5] it was 180 nM; in [6], 1 nM. The EC50 stood at 6 nM in series [7] and 14 nM in series [9]. Further, the CC50 with MT4 was determined as 35300 nM. The figures for the selectivity ratio in series [8] and in [10] were 192 and 29900, respectively. In addition, the IC50 in series [11] amounted to 240 nM.
On to `Cc1cc(/C=C/C#N)cc(C)c1Oc1ccnc(Nc2ccc(N3CCS(=O)(=O)CC3)c(C#N)c2)n1`, for which the half-maximal effective concentration (EC50) is 58 nM in series [1]; above 58300 nM in series [2]; 9 nM in [3]; 2 nM in series [4]; 260 nM in [5]; 2 nM in [6]. Besides, the EC50 in series [7] worked out at 4 nM; in series [9] it was 12 nM. Moreover, the CC50 in the series on MT4 turned out to be 58200 nM. The IC50 in series [11] amounted to 160 nM.
In the case of `Cc1cc(/C=C/C#N)cc(C)c1Oc1ccnc(Nc2ccc(N3CCN(S(N)(=O)=O)CC3)c(C#N)c2)n1`, the EC50 was 13 nM in series [1]; 1170 nM in series [2]; 29 nM in series [3]; 3 nM in series [4]; 230 nM in series [5]; 4 nM in series [6]. In addition, the EC50 in series [7] turned out to be 7 nM; in [9], 32 nM. Moreover, the CC50 with MT4 turned out to be 5880 nM. Moreover, the selectivity ratio in series [8] worked out at 26; in series [10], 1540. The IC50 in series [11] stood at 130 nM.
For `Cc1cc(/C=C/C#N)cc(C)c1Oc1ccnc(Nc2ccc(N3CCC(C#N)CC3)c(C#N)c2)n1`, the EC50 in [1] was 290 nM; in [2], above 42100 nM; in series [3], 110 nM; in series [4], 13 nM; in series [5], 1390 nM; in series [6] it was 9 nM. Besides, the EC50 was 230 nM in series [7] and 130 nM in series [9]. The CC50 with MT4 was above 42100 nM. Besides, the values for the selectivity ratio in series [8] and in series [10] were above 30 and above 4560, respectively.
For `Cc1cc(/C=C/C#N)cc(C)c1Oc1ccnc(Nc2ccc(N3CCOCC3=O)c(C#N)c2)n1`, the EC50 in series [1] was 330 nM; in [2], 2600 nM; in series [3], 15 nM; in series [4] it was 4 nM; in series [5], 140 nM; in series [6], 3 nM. Besides, the EC50 in series [7] stood at 13 nM; in series [9] it was 23 nM. Moreover, the CC50 in the series on MT4 was 26600 nM. For the same compound, the selectivity ratio was found to be 191 in series [8] and 9540 in [10].
Consider `Cc1cc(/C=C/C#N)cc(C)c1Oc1ccnc(Nc2ccc(N3CCS(=O)(=O)CC3=O)c(C#N)c2)n1`, for which the EC50 in [1] worked out at 250 nM; in series [2] it was 18400 nM; in [3], 130 nM; in series [4], 3 nM; in series [5], 910 nM; in [6] it was 4 nM. Further, the EC50 in series [7] amounted to 83 nM; in [9], 140 nM. The cytotoxic concentration (CC50) in the series on MT4 was 34000 nM. The values for the selectivity ratio in series [8] and in series [10] were 37 and 8130, respectively.
As for `Cc1cc(/C=C/C#N)cc(C)c1Oc1ccnc(Nc2ccc(N3CCN(S(C)(=O)=O)CC3=O)c(C#N)c2)n1`, the EC50 in [1] was 280 nM; in series [2] it was above 25600 nM; in series [3], 94 nM; in [4], 5 nM; in [5], 1520 nM; in [6] it was 4 nM. The EC50 in [7] was found to be 100 nM; in series [9], 310 nM. Moreover, in the series with MT4, the CC50 came out at 25600 nM. In addition, the selectivity ratio was 17 in [8] and 5910 in [10].
